Like-named read-outs stand apart in the source and are kept apart here.
Test system: HBV replication in HepG2.2.15 cells
Experiment: Anti-HBV activity in vitro in HepG2.2.15 cells (extracellular HBV DNA by qPCR)
Type: cell-based
Conditions: read-out: EC50
From the text: HepG2.2.15 and HepDE19 are stably-transfected cell lines containing the HBV genome. Both cell lines are derived from the hepatoblastoma cell line Hep G2 (American Type Culture Collection, ATCC® HB-8065™) by the published procedures described in references: M A Selles et al. Proc. Natl. Acad. Sci. USA 1987, 84, 1005-1009 and H Guo et al. Journal of Virology 2007, 81, 12472-12484, respectively. Both cell lines were maintained in Dulbecco's modified Eagle's medium (DMEM)-F12 medium supplemented with 10% fetal bovine serum, 100 U/mL penicillin, 100 μg/mL streptomycin, and 0.5 mg/mL of G418.
While HepG2.2.15 cells constitutively support HBV replication and production of virus particles, HepDE19 cells are inducible by tetracycline. Addition of 1 μg/mL tetracycline in culture medium suppresses HBV replication in HepDE19 cells, whereas switching to tetracycline-free medium resumes this process.
HepG2.2.15 cells were seeded into 96-well plates (3×10^4 cells in 100 μL media per well) and incubated overnight at 37° C. The test compounds were serially half-log diluted in DMSO, then diluted 100 times in culture media. 100 μL diluted compounds were added into the plates to reach 0.5% final concentration of DMSO in every well. Five days after compound treatment, culture supernatant was collected for further analysis.
For quantitative PCR detection of extracellular HBV DNA, 100 μL culture supernatant was collected and processed in MagNA Pure 96 Nucleic Acid Purification System (Roche Applied Science) for viral DNA extraction. The extracted samples were subjected to HBV DNA quantification by qPCR. The effective compound concentration at which HBV replication is inhibited by 50% (EC50) was determined.
The Examples were tested in the above assays as described herein and found to have EC50<1 μM in HepG2.2.15 assay.

[1] = Hepatitis B virus, HepG2.2.15, Anti-HBV activity in HepG2.2.15 cells

Compound	EC50 [1]	EC50 (Anti-HBV activity in HepG2.2.15 cells)
COC(=O)C1=C(CN2C3COCC2C(O)C3)NC(c2nccs2)=N[C@H]1c1ccc(F)cc1Cl (mixture of isomers) [Example 49, Methyl (4R)-4-(2-chloro-4-fluoro-phenyl)-6-[(6-hydroxy-3-oxa-8-azabicyclo[3.2.1]octan-8-yl)methyl]-2-thiazol-2-yl-1,4-dihydropyrimidine-5-carboxylate]	17.2 nM	–
COC(=O)C1=C(CN2C3COCC2CC(C(=O)OC)C3)NC(c2nccs2)=N[C@H]1c1ccc(F)cc1Br (stereo partly drawn) [Example 4, 9-[(R)-6-(2-Bromo-4-fluoro-phenyl)-5-methoxycarbonyl-2-thiazol-2-yl-3,6-dihydro-pyrimidin-4-ylmethyl]-3-oxa-9-aza-bicyclo[3.3.1]nonane-7-carboxylic acid methyl ester]	39 nM	–
COC(=O)C1=C(CN2C3COCC2CC(O)C3)NC(c2nccs2)=N[C@H]1c1ccc(F)cc1Cl (stereo partly drawn) [Example 9, (R)-4-(2-Chloro-4-fluoro-phenyl)-6-(7-hydroxy-3-oxa-9-aza-bicyclo[3.3.1]non-9-ylmethyl)-2-thiazol-2-yl-1,4-dihydro-pyrimidine-5-carboxylic acid methyl ester]	–	14 nM
CNS(=O)(=O)N1CC2COCC(C1)N2CC1=C(C(=O)OC)[C@H](c2ccc(F)cc2Cl)N=C(c2nccs2)N1 [Example 16, (R)-4-(2-Chloro-4-fluoro-phenyl)-6-(7-methylsulfamoyl-3-oxa-7,9-diaza-bicyclo[3.3.1]non-9-ylmethyl)-2-thiazol-2-yl-1,4-dihydro-pyrimidine-5-carboxylic acid methyl ester]	15 nM	–
CCOC(=O)C(C)(C)N1CC2COCC(C1)N2CC1=C(C(=O)OC)[C@H](c2ccc(F)cc2Cl)N=C(c2nccs2)N1 [Example 20, (R)-4-(2-Chloro-4-fluoro-phenyl)-6-[7-(1-ethoxycarbonyl-1-methyl-ethyl)-3-oxa-7,9-diaza-bicyclo[3.3.1]non-9-ylmethyl]-2-thiazol-2-yl-1,4-dihydro-pyrimidine-5-carboxylic acid methyl ester]	35 nM	–
COC(=O)C1=C(CN2C3COCC2CC(CC(=O)O)C3)NC(c2nccs2)=NC1c1ccc(F)c(F)c1 (stereo not shown) [Example 27, 6-(7-Carboxymethyl-3-oxa-9-aza-bicyclo[3.3.1]non-9-ylmethyl)-4-(3,4-difluoro-phenyl)-2-thiazol-2-yl-1,4-dihydro-pyrimidine-5-carboxylic acid methyl ester]	254 nM	–
COC(=O)C1=C(CN2C3COCC2CC(C(O)C(=O)OC)C3)NC(c2nccs2)=N[C@H]1c1ccc(F)cc1Cl (stereo partly drawn) [Example 30, (R)-4-(2-Chloro-4-fluoro-phenyl)-6-[7-(hydroxy-methoxycarbonyl-methyl)-3-oxa-9-aza-bicyclo[3.3.1]non-9-ylmethyl]-2-thiazol-2-yl-1,4-dihydro-pyrimidine-5-carboxylic acid methyl ester]	11 nM	–
COC(=O)C1=C(CN2C3COCC2c2c(C)n[nH]c2C3)NC(c2nccs2)=N[C@H]1c1ccc(F)cc1Cl (stereo partly drawn) [Example 32, (R)-4-(2-Chloro-4-fluoro-phenyl)-6-(3-methyl-10-oxa-4,5,12-triaza-tricyclo[6.3.1.0*2,6*]dodeca-2(6),3-dien-12-ylmethyl)-2-thiazol-2-yl-1,4-dihydro-pyrimidine-5-carboxylic acid methyl ester]	32 nM	–
COC(=O)C1=C(CN2[C@@H]3COC[C@H]2CC(OCC(=O)O)C3)NC(c2nccs2)=N[C@H]1c1ccc(F)c(F)c1 (stereo partly drawn) [Example 47, 2-[[(1R,5S)-9-[[(4S)-4-(3,4-difluorophenyl)-5-methoxycarbonyl-2-thiazol-2-yl-1,4-dihydropyrimidin-6-yl]methyl]-3-oxa-9-azabicyclo[3.3.1]nonan-7-yl]oxy]acetic acid]	295 nM	–
COC(=O)C1=C(CN2C3COCC2C(F)C3)NC(c2nccs2)=N[C@H]1c1ccc(F)cc1Cl (stereo partly drawn) [Example 51, Methyl (4R)-4-(2-chloro-4-fluoro-phenyl)-6-[(6-fluoro-3-oxa-8-azabicyclo[3.2.1]octan-8-yl)methyl]-2-thiazol-2-yl-1,4-dihydropyrimidine-5-carboxylate]	14.9 nM	–
COC(=O)C1=C(CN2C3COCC2C(F)c2oncc23)NC(c2nccs2)=N[C@H]1c1ccc(F)cc1Cl (stereo partly drawn) [Example 106, (4R)-4-(2-Chloro-4-fluoro-phenyl)-6-(7-fluoro-5,10-dioxa-4,12-diaza-tricyclo[6.3.1.0*2,6*]dodeca-2(6),3-dien-12-ylmethyl)-2-thiazol-2-yl-1,4-dihydropyrimidine-5-carrboxylic acid methyl ester]	8.5 nM	–
COC(=O)C1=C(CN2[C@H]3C[C@H](CC(=O)O)C[C@@H]2C(F)(F)C3)NC(c2nccs2)=N[C@H]1c1ccc(F)c(F)c1C [Example 112, 2-[(1S,3S,5R)-8-[[(4S)-4-(3,4-difluoro-2-methyl-phenyl)-5-methoxycarbonyl-2-thiazol-2-yl-1,4-dihydropyrimidin-6-yl]methyl]-6,6-difluoro-8-azabicyclo[3.2.1]octan-3-yl]acetic acid]	35.8 nM	–
COC(=O)C1=C(CN2C3CC(F)(F)C2C[C@](O)(CC(=O)O)C3)NC(c2nccs2)=N[C@H]1c1ccc(F)c(F)c1C (stereo partly drawn) [Example 119, 2-[(3S)-8-[[(4S)-4-(3,4-difluoro-2-methyl-phenyl)-5-methoxycarbonyl-2-thiazol-2-yl-1,4-dihydropyrimidin-6-yl]methyl]-6,6-difluoro-3-hydroxy-8-azabicyclo[3.2.1]octan-3-yl]acetic acid]	21.3 nM	–
COC(=O)C1=C(CN2C3CC(F)(F)C2C[C@](O)(CC(=O)O)C3)NC(c2nccs2)=N[C@H]1c1cccc(F)c1Cl (stereo partly drawn) [Example 121, 2-[(3S)-8-[[(4R)-4-(2-chloro-3-fluoro-phenyl)-5-methoxycarbonyl-2-thiazol-2-yl-1,4-dihydropyrimidin-6-yl]methyl]-6,6-difluoro-3-hydroxy-8-azabicyclo[3.2.1]octan-3-yl]acetic acid]	33 nM	–
COC(=O)C1=C(CN2C3CNC(=O)C2COC3)NC(c2nccs2)=N[C@H]1c1ccc(F)cc1Cl (stereo partly drawn) [Example 133, Methyl (4R)-4-(2-chloro-4-fluoro-phenyl)-6-[(6-oxo-3-oxa-7,9-diazabicyclo[3.3.1]nonan-9-yl)methyl]-2-thiazol-2-yl-1,4-dihydropyrimidine-5-carboxylate]	34 nM	–
CCOC(=O)CC1(O)CC2COCC(C1O)N2CC1=C(C(=O)OC)[C@H](c2ccc(F)cc2Cl)N=C(c2nccs2)N1 (stereo partly drawn) [Example 138, Methyl (4R)-4-(2-chloro-4-fluoro-phenyl)-6-[[7-(2-ethoxy-2-oxo-ethyl)-6,7-dihydroxy-3-oxa-9-azabicyclo[3.3.1]nonan-9-yl]methyl]-2-thiazol-2-yl-1,4-dihydropyrimidine-5-carboxylate]	58.2 nM	–
CCOC(=O)C1=C(CN2C3COCC2CC(N)(C(=O)O)C3)NC(c2nccs2)=N[C@H]1c1cccc(F)c1F (stereo partly drawn) [Example 140, 7-amino-9-[[(4R)-4-(2,3-difluorophenyl)-5-ethoxycarbonyl-2-thiazol-2-yl-1,4-dihydropyrimidin-6-yl]methyl]-3-oxa-9-azabicyclo[3.3.1]nonane-7-carboxylic acid]	103 nM	–
CCOC(=O)C1=C(CN2C3COCC2CC(N)(C(=O)O)C3)NC(c2nccs2)=N[C@H]1c1ccc(F)cc1Br (stereo partly drawn) [Example 141, 7-amino-9-[[(4R)-4-(2-bromo-4-fluoro-phenyl)-5-ethoxycarbonyl-2-thiazol-2-yl-1,4-dihydropyrimidin-6-yl]methyl]-3-oxa-9-azabicyclo[3.3.1]nonane-7-carboxylic acid]	271 nM	–
COC(=O)C1=C(CN2CC3CCC(C2)O3)NC(c2nccs2)=N[C@H]1c1ccc(F)cc1Cl [Example 142, Methyl (4R)-4-(2-chloro-4-fluoro-phenyl)-6-(8-oxa-3-azabicyclo[3.2.1]octan-3-ylmethyl)-2-thiazol-2-yl-1,4-dihydropyrimidine-5-carboxylate]	130 nM	–
COC(=O)C1=C(CN2CC3CC2CC3(F)F)NC(c2nccs2)=N[C@H]1c1ccc(F)cc1Cl (stereo partly drawn) [Example 143, Methyl (4R)-4-(2-chloro-4-fluoro-phenyl)-6-[(5,5-difluoro-2-azabicyclo[2.2.1]heptan-2-yl)methyl]-2-thiazol-2-yl-1,4-dihydropyrimidine-5-carboxylate]	41 nM	–
COC(=O)C1=C(CN2CC3CC2C(F)(F)C3)NC(c2nccs2)=N[C@H]1c1ccc(F)cc1Cl (stereo partly drawn) [Example 144, Methyl (4R)-4-(2-chloro-4-fluoro-phenyl)-6-[(5,5-difluoro-3-azabicyclo[2.2.1]heptan-3-yl)methyl]-2-thiazol-2-yl-1,4-dihydropyrimidine-5-carboxylate]	94 nM	–
COC(=O)C1=C(CN2C3CC(F)(F)C2C[C@@H]3C(=O)O)NC(c2nccs2)=N[C@H]1c1ccc(F)cc1Cl (stereo partly drawn) [Example 151, (5S)-7-[[(4R)-4-(2-chloro-4-fluoro-phenyl)-5-methoxycarbonyl-2-thiazol-2-yl-1,4-dihydropyrimidin-6-yl]methyl]-2,2-difluoro-7-azabicyclo[2.2.1]heptane-5-carboxylic acid]	29.5 nM	–

Reference: US9266904B2, “6-bridged heteroaryldihydropyrimidines for the treatment and prophylaxis of hepatitis B virus infection” (priority 2013, dated 2016)
